In patent US11993584B2, “Solid forms of an azolopyrimidine compound” (ARCUS BIOSCIENCES, INC., priority 2018, dated 2024):
Each block holds one compound with its values, some of them ahead of it.

What was measured:
[1] = molecular target: T1, A2BR (Homo sapiens, UniProt P29275); details: antagonist; has been reported (U.S. Ser. No. 15/875,106, PCT/US18/14352); cited from earlier work
T1 sequence (P29275 1-332): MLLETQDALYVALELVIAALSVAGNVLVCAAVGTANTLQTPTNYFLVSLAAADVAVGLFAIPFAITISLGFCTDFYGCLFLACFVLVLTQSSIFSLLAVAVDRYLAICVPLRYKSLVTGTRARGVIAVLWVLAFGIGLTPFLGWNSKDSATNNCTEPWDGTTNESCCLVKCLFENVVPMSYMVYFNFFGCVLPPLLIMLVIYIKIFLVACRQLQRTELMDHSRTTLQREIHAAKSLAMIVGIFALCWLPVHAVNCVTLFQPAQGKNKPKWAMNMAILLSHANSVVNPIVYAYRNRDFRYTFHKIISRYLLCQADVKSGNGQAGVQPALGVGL

[2] = molecular target: A2AR (Homo sapiens, UniProt P29274); details: antagonist; has been reported (U.S. Ser. No. 15/875,106, PCT/US18/14352); cited from earlier work
Chain of A2AR (P29274 whole entry): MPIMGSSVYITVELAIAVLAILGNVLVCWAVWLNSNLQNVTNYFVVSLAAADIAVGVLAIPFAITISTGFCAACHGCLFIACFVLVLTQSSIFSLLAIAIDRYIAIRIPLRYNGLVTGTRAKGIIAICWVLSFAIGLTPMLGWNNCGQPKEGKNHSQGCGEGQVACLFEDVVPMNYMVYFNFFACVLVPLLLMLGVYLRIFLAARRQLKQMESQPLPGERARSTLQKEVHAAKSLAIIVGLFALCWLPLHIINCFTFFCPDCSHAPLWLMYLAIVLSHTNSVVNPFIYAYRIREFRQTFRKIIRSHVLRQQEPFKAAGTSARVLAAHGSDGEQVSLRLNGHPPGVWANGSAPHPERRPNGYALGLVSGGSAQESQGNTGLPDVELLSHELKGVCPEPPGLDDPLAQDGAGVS

[3] = Dynamic vapor sorption (DVS) hygroscopicity; type: physicochemical
Description: Approximately 10 mg of sample was placed into a mesh vapor sorption balance pan and loaded into a DVS-1, DVS Intrinsic or DVS Advantage dynamic vapor sorption balance by Surface Measurement Systems. The sample was subjected to a ramping profile from 40-90% relative humidity (RH) at 10% increments, maintaining the sample at each step until a stable weight had been achieved (dm/dt 0.004%, minimum step length 30 min, maximum step length 500 min) at 25° C. After completion of the sorption cycle, the sample was dried using the same procedure to 0% RH and then a second sorption cycle back to 40% RH. Two cycles were performed. The weight change during the sorption/desorption cycles were plotted, allowing for the hygroscopic nature of the sample to be determined. XRPD analysis was then carried out on any solid retained.
A quantity of Compound I Form I was analyzed by dynamic vapor sorption (DVS). The sample was subjected to a ramping profile from 40-90% RH at 10% increments, maintaining the sample at each step until a stable weight had been achieved at 25° C. After completion of the sorption cycle, the sample was dried using the same procedure to 0% RH and then a second sorption cycle back to 40% RH. Two cycles were performed. The weight change during the sorption/desorption cycles were plotted, allowing for the hygroscopic nature of the sample to be determined.

[4] = Solid-state stability of Form I under stress storage, analysis by HPLC and XRPD; type: physicochemical
Description: XRPD analysis was carried out on a PANalytical X'pert pro, scanning the samples between 3 and […] 2θ. The material was gently ground to release any agglomerates and loaded onto a multi-well plate with Kapton or Mylar polymer film to support the sample. The multi-well plate was then placed into the diffractometer and analyzed using Cu K radiation (α1λ=1.54060 Å; α2=1.54443 Å; β=1.39225 Å; α1: α2 ratio=0.5) running in transmission mode (step size 0.0130° 2θ) using 40 kV/40 mA generator settings.
• Instrument: Agilient 1100 • Column: Zorbax Eclipse Plus C18 150 mm×3.0 mm, 3.5 μm particle size • Column Temperature: 35° C. • Autosampler Temperature: Ambient • UV wavelength: 228 nm • Injection Volume: 3 μL • Flow Rate: 1 mL/min • Mobile Phase A: Water (0.1% formic acid in 95:5 water:ACN) • Mobile Phase B: ACN (0.1% formic acid) • Gradient program: […]
Vials containing a quantity of Form I of Compound I were subjected to a temperature of 40° C. at 75% relative humidity (RH) for one week. […] Additionally, vials containing a quantity of the crystalline material were subjected to a temperature of 80° C. in a closed vial for one week.

[5] = Competitive 1:1 slurry experiments of the two forms; type: physicochemical; details: 1:1 slurry of Form I and Form III, variety of solvents
[6] = Qualitative dissolution of amorphous Compound I in solvents; type: physicochemical; details: 40 mg sample
Description: Amorphous Compound I was produced by dissolving Compound I in 1,4-dioxane and subsequent lyophilization. The amorphous solid form was confirmed by the lack of indicative peaks by XRPD. To the amorphous Compound I, solvent was added to the 12×40 mg samples to prepare slurries for thermal cycling. The material was readily soluble in many of the 12 solvents and therefore, several of the samples were thermally cycled as saturated solutions.

SMILES: Cc1c(C#N)cccc1-c1cc(-c2cn(Cc3cccc(C(C)(C)O)n3)nn2)nc(N)n1 [Compound I, 3-[2-amino-6-(1-{[6-(2-hydroxypropan-2-yl)pyridin-2-yl]methyl}-1H-1,2,3-triazol-4-yl)pyrimidin-4-yl]-2-methylbenzonitrile]
- potency on A2BR [1]: less than 10 nM
- potency on A2AR [2]: less than 10 nM

- hygroscopic nature ([3]; DVS, 25° C.): slightly hygroscopic
- XRPD analysis of resultant solid after DVS ([3]; after two sorption/desorption cycles): no change in morphology observed
- maximum absorption of water (DVS) ([3]; at 90% relative humidity, 25° C., 0-90% RH range, reversible): 1.1%
- hysteresis upon cycling (DVS) ([3]; two cycles, 0-90% RH): No hysteresis was observed
SMILES: Cc1c(C#N)cccc1-c1cc(-c2cn(Cc3cccc(C(C)(C)O)n3)nn2)nc(N)n1 [Form I of Compound I, 3-[2-amino-6-(1-{[6-(2-hydroxypropan-2-yl)pyridin-2-yl]methyl}-1H-1,2,3-triazol-4-yl)pyrimidin-4-yl]-2-methylbenzonitrile]
- stability (decomposition, morphology change) by HPLC and XRPD ([4]; 40° C. at 75% relative humidity (RH) for one week): stable with no decomposition or morphology change observed
- stability (decomposition, morphology change) by HPLC and XRPD ([4]; 80° C. in a closed vial for one week): stable with no decomposition or change in morphology observed

- form conversion in competitive slurry [5]: converted to Form I
SMILES: Cc1c(C#N)cccc1-c1cc(-c2cn(Cc3cccc(C(C)(C)O)n3)nn2)nc(N)n1 [Form III, 3-[2-amino-6-(1-{[6-(2-hydroxypropan-2-yl)pyridin-2-yl]methyl}-1H-1,2,3-triazol-4-yl)pyrimidin-4-yl]-2-methylbenzonitrile]

- Slurry or Solution ([6]; 1,4-Dioxane, 200 μL): Solution
- Slurry or Solution ([6]; 2-Ethoxyethanol, 200 μL): solution
- Slurry or Solution ([6]; 25% Acetone/75% water, 200 μL): Solution
- Slurry or Solution ([6]; 25% MeCN/75% water, 300 μL): Slurry
- Slurry or Solution ([6]; Isopropanol, 400 μL): Slurry
- Slurry or Solution ([6]; Isopropyl acetate, 200 μL): Solution
- Slurry or Solution ([6]; Methanol, 200 μL): Solution
- Slurry or Solution ([6]; THF, 200 μL): Solution
- Slurry or Solution ([6]; Toluene, 700 μL): Slurry
- Slurry or Solution ([6]; acetonitrile, 400 μL): Slurry
- Slurry or Solution ([6]; dichloromethane, 200 μL): Solution
- Slurry or Solution ([6]; water, 700 μL): slurry
SMILES: Cc1c(C#N)cccc1-c1cc(-c2cn(Cc3cccc(C(C)(C)O)n3)nn2)nc(N)n1 [amorphous Compound I, 3-[2-amino-6-(1-{[6-(2-hydroxypropan-2-yl)pyridin-2-yl]methyl}-1H-1,2,3-triazol-4-yl)pyrimidin-4-yl]-2-methylbenzonitrile]
